What all share (test): Enzymatic Activity Assay
In one assay the target is Histone deacetylase 1 (Homo sapiens, UniProt Q13547). As for the experimental part:
(§1) After a period of preincubation (incubation times and temperatures vary for different isoforms and are shown in table 1) 25 μL of solution containing the substrate were added. […] Enzymatic activity on recombinant human HDAC6 and HDAC1 was evaluated (Table 2) for each synthesized compound.

For the next assay, the target named is T1, Histone deacetylase 11 (Homo sapiens, UniProt Q96DB2).
T1 sequence (Q96DB2 whole entry): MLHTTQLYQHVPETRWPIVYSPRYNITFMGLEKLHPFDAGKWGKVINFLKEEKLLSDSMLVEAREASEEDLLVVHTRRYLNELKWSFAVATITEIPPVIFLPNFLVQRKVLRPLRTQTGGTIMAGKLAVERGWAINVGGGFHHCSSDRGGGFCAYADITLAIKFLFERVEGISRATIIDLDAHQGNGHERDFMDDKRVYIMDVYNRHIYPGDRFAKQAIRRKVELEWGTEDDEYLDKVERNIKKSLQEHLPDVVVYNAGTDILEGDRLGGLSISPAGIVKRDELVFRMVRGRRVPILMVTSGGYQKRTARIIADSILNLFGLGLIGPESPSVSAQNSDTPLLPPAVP
As for the experimental part: as §1

In the next assay the target is T2, Histone deacetylase 8 (Homo sapiens, UniProt Q9BY41).
T2 sequence (Q9BY41 whole entry): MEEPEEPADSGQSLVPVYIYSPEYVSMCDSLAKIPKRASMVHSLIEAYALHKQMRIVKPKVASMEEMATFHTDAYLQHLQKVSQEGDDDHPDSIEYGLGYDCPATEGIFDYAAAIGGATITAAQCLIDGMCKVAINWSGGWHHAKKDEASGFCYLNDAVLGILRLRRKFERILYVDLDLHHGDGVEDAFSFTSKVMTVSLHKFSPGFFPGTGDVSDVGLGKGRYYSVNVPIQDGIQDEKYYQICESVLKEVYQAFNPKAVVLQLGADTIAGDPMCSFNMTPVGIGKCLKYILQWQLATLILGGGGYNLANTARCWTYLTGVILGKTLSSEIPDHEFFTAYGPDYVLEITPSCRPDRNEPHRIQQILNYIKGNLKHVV
How it is done: as §1

For another assay, the target named is Histone deacetylase 9 (Homo sapiens, UniProt Q9UKV0). As for the experimental part:
as §1

Assay [1] addresses T3, Polyamine deacetylase HDAC10 (Homo sapiens, UniProt Q969S8).
T3 sequence (Q969S8 whole entry): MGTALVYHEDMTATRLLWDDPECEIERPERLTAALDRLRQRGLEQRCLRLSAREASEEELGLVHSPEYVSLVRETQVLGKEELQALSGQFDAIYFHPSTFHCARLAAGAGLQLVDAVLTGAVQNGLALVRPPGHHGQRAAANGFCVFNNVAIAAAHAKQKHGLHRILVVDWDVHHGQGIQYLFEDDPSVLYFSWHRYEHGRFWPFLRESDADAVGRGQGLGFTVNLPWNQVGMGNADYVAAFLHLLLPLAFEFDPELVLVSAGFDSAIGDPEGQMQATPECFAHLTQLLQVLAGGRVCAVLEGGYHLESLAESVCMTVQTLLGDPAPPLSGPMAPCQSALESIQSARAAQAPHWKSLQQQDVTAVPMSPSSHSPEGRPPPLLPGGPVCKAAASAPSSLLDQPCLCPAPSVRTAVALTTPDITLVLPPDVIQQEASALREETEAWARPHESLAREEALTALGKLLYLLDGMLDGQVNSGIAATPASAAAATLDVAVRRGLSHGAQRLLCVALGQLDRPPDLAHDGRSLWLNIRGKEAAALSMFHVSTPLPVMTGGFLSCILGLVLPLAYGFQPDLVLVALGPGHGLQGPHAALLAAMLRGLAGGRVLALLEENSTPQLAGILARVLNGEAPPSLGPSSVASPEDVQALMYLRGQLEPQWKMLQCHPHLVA
As for the experimental part: as §1

Molecules are shown by their SMILES.

Drawing on BindingDB's records for patent US20230286970 (Italfarmaco, 2023), this text covers IC50 for 2 molecules.

By IC50 is commonly meant the concentration needed to halve the response being measured. A higher IC50 goes with a need for much substance.

Histone deacetylase 9, sequence (Q9UKV0 whole entry): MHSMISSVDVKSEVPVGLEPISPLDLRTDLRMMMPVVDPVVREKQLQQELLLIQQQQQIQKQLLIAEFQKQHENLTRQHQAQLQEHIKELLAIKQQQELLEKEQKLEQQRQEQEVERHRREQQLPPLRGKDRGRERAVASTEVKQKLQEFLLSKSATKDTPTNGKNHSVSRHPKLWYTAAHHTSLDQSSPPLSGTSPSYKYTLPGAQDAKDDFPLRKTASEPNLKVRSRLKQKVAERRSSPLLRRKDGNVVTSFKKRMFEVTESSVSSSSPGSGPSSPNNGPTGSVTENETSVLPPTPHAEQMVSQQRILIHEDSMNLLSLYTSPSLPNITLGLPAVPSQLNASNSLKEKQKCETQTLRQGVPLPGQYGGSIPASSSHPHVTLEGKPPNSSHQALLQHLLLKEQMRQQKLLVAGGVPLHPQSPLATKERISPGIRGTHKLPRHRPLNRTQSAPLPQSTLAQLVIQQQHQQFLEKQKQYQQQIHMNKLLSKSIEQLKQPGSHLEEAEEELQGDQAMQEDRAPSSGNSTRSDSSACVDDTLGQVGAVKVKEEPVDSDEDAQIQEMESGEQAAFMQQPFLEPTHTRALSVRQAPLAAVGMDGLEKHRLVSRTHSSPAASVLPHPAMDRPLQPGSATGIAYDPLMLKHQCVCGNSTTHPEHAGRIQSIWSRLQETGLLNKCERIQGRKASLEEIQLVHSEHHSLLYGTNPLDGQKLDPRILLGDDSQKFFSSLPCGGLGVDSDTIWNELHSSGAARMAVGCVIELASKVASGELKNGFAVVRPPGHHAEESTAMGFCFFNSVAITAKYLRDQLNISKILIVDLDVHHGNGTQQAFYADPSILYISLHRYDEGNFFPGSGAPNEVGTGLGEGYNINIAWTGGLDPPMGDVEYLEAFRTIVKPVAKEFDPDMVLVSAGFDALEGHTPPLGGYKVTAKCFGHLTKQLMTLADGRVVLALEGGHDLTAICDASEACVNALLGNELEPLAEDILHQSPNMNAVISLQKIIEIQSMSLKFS
Histone deacetylase 1, sequence (Q13547 whole entry, canonical isoform): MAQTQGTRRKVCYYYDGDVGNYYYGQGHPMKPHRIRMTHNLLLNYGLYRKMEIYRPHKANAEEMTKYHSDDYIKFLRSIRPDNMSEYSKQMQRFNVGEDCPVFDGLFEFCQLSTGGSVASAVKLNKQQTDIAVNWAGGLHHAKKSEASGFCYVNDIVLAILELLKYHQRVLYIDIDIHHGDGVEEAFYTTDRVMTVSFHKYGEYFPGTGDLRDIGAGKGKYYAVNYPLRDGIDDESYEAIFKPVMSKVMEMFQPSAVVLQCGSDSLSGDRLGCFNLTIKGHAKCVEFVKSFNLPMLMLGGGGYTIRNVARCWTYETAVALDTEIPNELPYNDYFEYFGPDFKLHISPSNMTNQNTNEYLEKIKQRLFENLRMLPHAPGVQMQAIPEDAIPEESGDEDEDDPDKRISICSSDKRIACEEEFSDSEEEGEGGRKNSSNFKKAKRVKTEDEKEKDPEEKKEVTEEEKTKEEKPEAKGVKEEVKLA

With `Nc1nc2ccc(-c3cn(Cc4ccc(-c5nnc(C(F)F)o5)cc4)nn3)cc2s1` [US20230286970, Compound 14], the IC50 was more than 200 µM against Histone deacetylase 1; more than 30 µM against Histone deacetylase 11; more than 200 µM against Histone deacetylase 8; more than 30 µM at Histone deacetylase 9; more than 30 µM in assay [1].
`Nc1ccc(-c2cn(Cc3ccc(-c4nnc(C(F)F)o4)c(F)c3)nn2)cn1` [US20230286970, Compound 15]: the concentration for half-maximal inhibition (IC50) at Histone deacetylase 1 was more than 200 µM; against Histone deacetylase 11, more than 30 µM; against Histone deacetylase 8, more than 200 µM; against Histone deacetylase 9, more than 30 µM; in assay [1], more than 30 µM.
